biological target: EGFR (UniProt P00533); experiment: not given
Sequence (P00533 whole entry, looked up): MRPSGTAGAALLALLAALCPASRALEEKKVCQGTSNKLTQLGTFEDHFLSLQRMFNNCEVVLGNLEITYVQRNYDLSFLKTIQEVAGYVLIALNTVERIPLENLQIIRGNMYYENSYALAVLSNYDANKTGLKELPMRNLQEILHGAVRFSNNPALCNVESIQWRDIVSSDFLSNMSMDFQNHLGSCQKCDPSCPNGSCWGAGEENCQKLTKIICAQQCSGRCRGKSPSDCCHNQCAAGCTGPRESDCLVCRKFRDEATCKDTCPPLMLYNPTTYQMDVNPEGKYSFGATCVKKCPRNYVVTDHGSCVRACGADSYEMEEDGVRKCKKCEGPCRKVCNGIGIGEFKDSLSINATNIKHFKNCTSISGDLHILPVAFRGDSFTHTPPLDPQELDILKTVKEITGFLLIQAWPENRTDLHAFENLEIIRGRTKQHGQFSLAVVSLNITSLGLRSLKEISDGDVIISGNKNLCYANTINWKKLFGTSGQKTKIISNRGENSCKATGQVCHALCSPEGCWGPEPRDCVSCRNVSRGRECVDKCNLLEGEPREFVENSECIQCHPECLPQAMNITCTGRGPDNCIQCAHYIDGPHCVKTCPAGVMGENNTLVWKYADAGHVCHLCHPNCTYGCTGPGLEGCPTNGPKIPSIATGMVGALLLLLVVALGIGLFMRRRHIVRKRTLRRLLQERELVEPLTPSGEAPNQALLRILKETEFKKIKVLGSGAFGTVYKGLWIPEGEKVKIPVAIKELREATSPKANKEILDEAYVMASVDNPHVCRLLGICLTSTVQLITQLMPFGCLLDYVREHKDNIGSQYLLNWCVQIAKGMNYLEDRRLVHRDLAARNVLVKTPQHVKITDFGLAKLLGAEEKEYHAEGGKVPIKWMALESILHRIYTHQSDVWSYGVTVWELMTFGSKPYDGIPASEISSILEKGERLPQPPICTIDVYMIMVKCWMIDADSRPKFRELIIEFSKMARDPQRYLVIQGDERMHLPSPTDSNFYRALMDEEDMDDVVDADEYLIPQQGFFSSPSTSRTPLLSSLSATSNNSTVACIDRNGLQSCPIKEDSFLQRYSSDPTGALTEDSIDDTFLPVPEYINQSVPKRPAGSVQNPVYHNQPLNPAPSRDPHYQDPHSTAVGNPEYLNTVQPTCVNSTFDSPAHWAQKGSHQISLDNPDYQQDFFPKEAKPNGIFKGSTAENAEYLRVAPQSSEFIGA

| Compound | IC50 [µM] |
| --- | --- |
| Cc1cc(C(=O)N2CCN(C)CC2)[nH]c1/C=C1\C(=O)Nc2cccc(C3CCNCC3)c21 | > 20 |
| CCOC(=O)c1c(C)[nH]c(/C=C2\C(=O)Nc3cccc(-c4ccccn4)c32)c1CCCN1CCN(C)CC1 | > 20 |
| Cc1cc(C(=O)O)[nH]c1/C=C1\C(=O)Nc2cccc(-c3ccncc3)c21 | > 20 |
| Cc1[nH]c(/C=C2\C(=O)Nc3cccc(-c4ccncc4)c32)c(C)c1CC(=O)O | > 20 |
| O=C1Nc2cccc(C3CCNCC3)c2/C1=C/c1[nH]cc(C(=O)O)c1CCO | > 20 |
| CCN(CC)CCNC(=O)c1c(C)[nH]c(/C=C2\C(=O)Nc3cccc(-c4cncc(C(=O)O)c4)c32)c1C | > 20 |
| Cc1nc[nH]c1/C=C1\C(=O)Nc2cccc(C3CCNCC3)c21 | > 20 |
| CCOC(=O)c1c(C)[nH]c(/C=C2\C(=O)Nc3cccc(-c4cncnc4)c32)c1CCCN1CCN(C)CC1 | > 20 |
| Cc1cc(C)c(/C=C2\C(=O)Nc3cccc(-c4ccncc4)c32)[nH]1 | > 20 |
| O=C1Nc2cccc(-c3ccncc3)c2/C1=C/c1cc2ccccc2[nH]1 | 16.3 |
| Cc1[nH]c(/C=C2\C(=O)Nc3cccc(-c4cncc(C(=O)O)c4)c32)c(C)c1C(=O)N1CCN(C)CC1 | > 20 |
| O=C1Nc2cccc(C3CCNCC3)c2/C1=C/c1ccc(N2CCOCC2)cc1 | > 20 |
| Cc1cc(C(=O)O)[nH]c1/C=C1\C(=O)Nc2cccc(C3CCNCC3)c21 | > 20 |
| CCOC(=O)c1c(C)[nH]c(/C=C2\C(=O)Nc3cccc(-c4cncc(C(=O)O)c4)c32)c1CCCN1CCN(C)CC1 | > 20 |
| O=C(O)CCc1c(/C=C2\C(=O)Nc3cccc(-c4ccncc4)c32)[nH]c2c1CCCC2 | > 20 |
| CCOC(=O)c1[nH]c(/C=C2\C(=O)Nc3cccc(C4CCNCC4)c32)c(CCC(=O)O)c1C | > 20 |
| CCOC(=O)c1c(C)[nH]c(/C=C2\C(=O)Nc3cccc(-c4ccc(N)nc4)c32)c1CCCN1CCN(C)CC1 | > 20 |
| CCN(CC)CCNC(=O)c1c(C)[nH]c(/C=C2\C(=O)Nc3cccc(-c4ccncc4)c32)c1C | > 20 |
| Cc1ccc(/C=C2\C(=O)Nc3cccc(C4CCNCC4)c32)s1 | > 20 |
| CCOC(=O)c1[nH]c(/C=C2\C(=O)Nc3cccc(C4CCNCC4)c32)c2c1CCCC2 | 14.7 |
| Cc1c(C(=O)N2CCCCC2)c[nH]c1/C=C1\C(=O)Nc2cccc(C3CCNCC3)c21 | > 20 |
| O=C1Nc2cccc(C3CCNCC3)c2/C1=C/c1cc2cc(OCCN3CCOCC3)ccc2[nH]1 | 19.1 |
| O=C1Nc2cccc(C3CCNCC3)c2/C1=C/c1cc2ccccc2[nH]1 | > 20 |
| CCN(CC)CCNC(=O)c1c(C)[nH]c(/C=C2\C(=O)Nc3cccc(C4CCNCC4)c32)c1C | > 20 |
| Cc1[nH]c(/C=C2\C(=O)Nc3cccc(C4CCNCC4)c32)c(C)c1CC(=O)O | > 20 |
| CCc1cc(CCC(=O)O)c(/C=C2\C(=O)Nc3cccc(-c4ccncc4)c32)[nH]1 | > 20 |

| Compound | IC50 [µM] |
| --- | --- |
| Cc1c(C(=O)N2CCCCC2)c[nH]c1/C=C1\C(=O)Nc2cccc(-c3ccncc3)c21 | > 20 |
| CCOC(=O)c1c(C)[nH]c(/C=C2\C(=O)Nc3cccc(-c4ccncc4)c32)c1CCC(=O)O | > 20 |
| O=C1Nc2cccc(-c3ccncc3)c2/C1=C/c1[nH]c2c(c1CCCN1CCOCC1)CCCC2 | > 20 |
| Cc1[nH]c(/C=C2\C(=O)Nc3cccc(-c4ccccn4)c32)c(C)c1C(=O)N1CCN(C)CC1 | > 20 |
| Cc1[nH]c(/C=C2\C(=O)Nc3cccc(-c4ccncc4)c32)c(C)c1C(=O)N1CCN(C)CC1 | > 20 |
| Cc1[nH]c(/C=C2\C(=O)Nc3cccc(-c4ccc(N)nc4)c32)c(C)c1C(=O)N1CCN(C)CC1 | > 20 |
| O=C1Nc2cccc(C3CCNCC3)c2/C1=C/c1[nH]c2c(c1CCCN1CCOCC1)CCCC2 | > 20 |
| CCOC(=O)c1c(C)[nH]c(/C=C2\C(=O)Nc3cccc(-c4nccs4)c32)c1CCCN1CCN(C)CC1 | > 20 |
| O=C1Nc2cccc(-c3ccncc3)c2/C1=C/c1cc2cc(OCCN3CCOCC3)ccc2[nH]1 | 17.9 |
| O=C1Nc2cccc(C3CCNCC3)c2/C1=C/c1cc2c([nH]1)CCCC2 | > 20 |
| Cc1[nH]c(/C=C2\C(=O)Nc3cccc(-c4cncnc4)c32)c(C)c1C(=O)N1CCN(C)CC1 | > 20 |
| Cc1[nH]c(/C=C2\C(=O)Nc3cccc(C4CCNCC4)c32)c(C)c1CCC(=O)O | > 20 |
| CCOC(=O)c1c(C)[nH]c(/C=C2\C(=O)Nc3cccc(-c4cccnc4)c32)c1CCCN1CCN(C)CC1 | > 20 |
| O=C1Nc2cccc(-c3ccncc3)c2/C1=C/c1[nH]cc2c1CCOC2=O | > 20 |
| O=C1Nc2cccc(C3CCNCC3)c2/C1=C/c1[nH]cc2c1CCOC2=O | > 20 |
| Cc1cc(CCC(=O)O)c(/C=C2\C(=O)Nc3cccc(-c4ccncc4)c32)[nH]1 | > 20 |
| Cc1c(C(=O)N2CCOCC2)c[nH]c1/C=C1\C(=O)Nc2cccc(C3CCNCC3)c21 | > 20 |
| Cc1cc(C(=O)O)c(/C=C2\C(=O)Nc3cccc(C4CCNCC4)c32)[nH]1 | > 20 |
| Cc1[nH]c(/C=C2\C(=O)Nc3cccc(-c4ccncc4)c32)c(C)c1CCC(=O)O | > 20 |
| Cc1[nH]c(/C=C2\C(=O)Nc3cccc(C4CCNCC4)c32)c(-c2ccccc2)c1C(=O)Nc1ccncc1 | > 20 |
| Cc1[nH]c(/C=C2\C(=O)Nc3cccc(-c4cccnc4)c32)c(C)c1C(=O)N1CCN(C)CC1 | > 20 |
| CCc1cc(CCC(=O)O)c(/C=C2\C(=O)Nc3cccc(C4CCNCC4)c32)[nH]1 | > 20 |
| Cc1nc[nH]c1/C=C1\C(=O)Nc2cccc(-c3ccncc3)c21 | > 20 |
| Cc1[nH]c(/C=C2\C(=O)Nc3cccc(-c4nccs4)c32)c(C)c1C(=O)N1CCN(C)CC1 | > 20 |
| Cc1cc(C(=O)O)c(/C=C2\C(=O)Nc3cccc(-c4ccncc4)c32)[nH]1 | > 20 |

biological target: CDK2 (UniProt P24941); experiment: Enzyme Assay

| Compound | IC50 [µM] |
| --- | --- |
| Cc1nc[nH]c1/C=C1\C(=O)Nc2cccc(C3CCNCC3)c21 | 0.01 |
| Cc1c(C(=O)N2CCCCC2)c[nH]c1/C=C1\C(=O)Nc2cccc(C3CCNCC3)c21 | 0.02 |
| O=C1Nc2cccc(C3CCNCC3)c2/C1=C/c1cc2cc(OCCN3CCOCC3)ccc2[nH]1 | 1.96 |
| Cc1c(C(=O)N2CCCCC2)c[nH]c1/C=C1\C(=O)Nc2cccc(-c3ccncc3)c21 | 0.75 |
| O=C1Nc2cccc(C3CCNCC3)c2/C1=C/c1[nH]cc2c1CCNC2=O | 0.06 |
| O=C1Nc2cccc(-c3ccncc3)c2/C1=C/c1[nH]cc2c1CCOC2=O | 0.08 |
| O=C1Nc2cccc(C3CCNCC3)c2/C1=C/c1[nH]cc2c1CCOC2=O | 0.009 |
| Cc1c(C(=O)N2CCOCC2)c[nH]c1/C=C1\C(=O)Nc2cccc(C3CCNCC3)c21 | 0.02 |
| Cc1nc[nH]c1/C=C1\C(=O)Nc2cccc(-c3ccncc3)c21 | 0.03 |
| CN1CCc2c(c[nH]c2/C=C2\C(=O)Nc3cccc(C4CCNCC4)c32)C1=O | 0.26 |

— the Kinase Knowledgebase extract (Sharma et al. 2016)
